Source: article PMC6888270 (International Journal of Molecular Sciences, 2019)
Square brackets hold non-standard residues; d marks the D form. Peptide text beside a SMILES is read from it. Phe(4-Cl) = N[C@@H](Cc1ccc(Cl)cc1)C(=O)O; d2Nal = N[C@H](Cc1ccc2ccccc2c1)C(=O)O; d(hCit) = NC(=O)NCCCC[C@@H](N)C(=O)O; Lys(iPr) = CC(C)NCCCC[C@H](N)C(=O)O; d3Pal = N[C@H](Cc1cccnc1)C(=O)O

Legend:
Lhb gene expression = Lhb gene expression by qRT-PCR in LβT2 cells; type: cell-based, mouse; conditions: 1 µM GnRH + 1 µM antagonist, 24 h, n = 4
Description: LβT2 cells were seeded in 24-well plates (2 × 10^5 cells/well) and cultured for 24 h in DMEM supplemented with 10% Charcoal Stripped FBS, 4.5 g/L glucose, 100 IU/mL penicillin, 0.1 mg/mL streptomycin, and 1 mM glutamine (all from Sigma-Aldrich) before treatments. […] Samples were lysed for RNA extraction using TRIzolTM Reagent (Invitrogen) and equal amounts of total RNA were used for cDNA synthesis performed using the iScript reverse transcriptase (BioRad), as previously described. qRT-PCR was carried out in triplicates on the CFX96TM Real-Time PCR Detection System (BioRad) using the following primers pairs: [NT] for mouse Lhb; [NT] for mouse Gapdh. Primer sequences were drawn using the Mus musculus Lhb (NCBI Reference Sequence: NM_008497.2) and Gapdh (NM_008084.3) mRNAs as templates. Gene expression of Lhb was normalized to mouse Gapdh gene expression using the 2^-ΔΔCt method.

β-catenin activation = assay: Immunofluorescence of active β-catenin in HEK293/GnRHR cells; type: cell-based, human; conditions: 1 µM GnRH + 1 µM antagonist, 1 h
Description: In order to evaluate the activation of phospho-proteins and β-catenin by Western blotting and immunofluorescence, 1 × 10^5 HEK293 cells were transiently transfected in a 24-well plate. To this purpose, 500 ng of GnRHR-HA-encoding vector diluted in 2 µL/well Lipofectamine® 2000 Transfection Reagent (Invitrogen) were used, according to the manufacturer’s instructions. Transfected HEK293 cells (HEK293/GnRHR) were cultured for 48 h and maintained over-night in serum-free medium before experiments.
3 × 10^4 HEK293/GnRHR and mock-transfected HEK293 cells (negative control) were plated on gelatine-treated slides. […] As a positive control, cells were treated for 16 h with 100 nM of the selective glycogen synthase kinase 3 (GSK3) inhibitor, CHIR99021 (Sigma-Aldrich), which stabilizes free cytosolic β-catenin [68]. After stimulations, cells were washed in PBS with Ca^2+/Mg^2+ and fixed for 20 min in paraformaldehyde 4%/PBS. Cell monolayers were washed by PBS and permeabilized using 0.1% Triton X-100. Samples were incubated in 4% bovine serum albumin (BSA)/PBS, for 1 h at room temperature (RT), before incubation with a mouse primary antibody targeting β-catenin (#05-665, 1:300 dilution in 4% BSA/PBS; Merck KGaA) overnight at 4 °C. Following washing, cells were then incubated with Cy3-conjugated anti-mouse IgG secondary antibody (#C2181, 1:200 dilution in 4% BSA/PBS; Sigma-Aldrich) for 1 h at RT. Cell monolayers were then stained for 10 min with 4′,6-diamidino-2-phenylindole (DAPI) (Sigma-Aldrich) and washed in PBS before slide treatment by polyvinyl alcohol mounting medium with 1,4-diazabicyclo[2.2.2]octane (DABCO®) (Sigma-Aldrich). Fluorescent signals were detected using the Eclipse Ni-E microscope (Nikon Instruments BV, Amsterdam, The Netherlands).

GnRH receptor (GnRHR) [1] = target: T1, GnRH receptor (GnRHR) (Homo sapiens, UniProt P30968); assay: BRET measurement of GnRH-induced intracellular Ca2+ increase in HEK293/GnRHR cells; type: cell-based; parameters: HA (hemagglutinin); expressed in transfected cells; host or cells: HEK293 (transient co-transfection with BRET biosensor); conditions: means ± SEM, n = 6
T1 sequence (P30968 1-328): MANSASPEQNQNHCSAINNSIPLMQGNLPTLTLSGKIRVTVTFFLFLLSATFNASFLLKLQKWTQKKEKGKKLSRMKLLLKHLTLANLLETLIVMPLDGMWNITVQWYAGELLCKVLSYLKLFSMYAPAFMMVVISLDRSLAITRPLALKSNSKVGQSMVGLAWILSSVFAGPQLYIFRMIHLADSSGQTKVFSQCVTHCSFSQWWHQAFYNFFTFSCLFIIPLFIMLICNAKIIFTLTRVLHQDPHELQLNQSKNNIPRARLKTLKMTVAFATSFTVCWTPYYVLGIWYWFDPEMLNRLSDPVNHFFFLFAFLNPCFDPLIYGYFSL
Description: (§1) Different transfection protocols were followed, depending on the endpoint to be measured. For BRET experiments, 3 × 10^4 cells were transiently transfected using vectors expressing the cAMP-CAMYEL or the aequorin-Ca^2+ BRET biosensor-encoding cDNA [59], as appropriate, together with the GnRHR-HA-encoding vector. Transfections were performed in a 96-well plate using the Metafectene PRO reagent (Biontex, München, Germany), as previously described. 100 ng of the receptor-encoding vector + 100 ng of the BRET biosensor-encoding vector were used for co-transfecting HEK293 cells, while SH-SY5Y cells were co-transfected using 200 ng of the receptor-encoding vector + 100 ng of the BRET biosensor-encoding vector. 200 ng of the aequorin-Ca^2+ BRET biosensor-encoding cDNA were used for transfecting LβT2 cells. Each sample was prepared in duplicate, cultured for 48 h and serum-starved over-night before experiments.
(§2) To evaluate Ca^2+ increase, cells were incubated in Hank’s Balanced Salt Solution (HBSS) with Ca^2+ and Mg^2+, 1 mM Hepes and 5 µM Coelenterazine H (NanoLight Technologies, a division of Prolume, Ltd., Pinetop, AZ, USA), for 45 minutes, together with Cetrorelix, Ganirelix, Teverelix or vehicle, as appropriate. […] The EC50 was extrapolated from the curve obtained from each cell line. Cells treated by 5 µM of the sarco/endoplasmic reticulum Ca^2+ ATPase enzyme inhibitor, thapsigargin (Tocris Bioscience), served as positive control. Treatment by the vehicle (HBSS) was the negative control and used as a normalizer.
(§3) BRET experiments were performed using a CLARIOstar plate reader equipped by a monocromator (BMG Labtech, Ortenberg, Germany), as previously described.
(§4) Data were plotted on graphs as means ± standard error of means (SEM). The kinetics of intracellular Ca^2+ increase was represented by the BRET biosensor emission after background subtraction (vehicle). […] Data distributions were analyzed by D’Agostino and Pearson normality tests and inhibition of intracellular Ca^2+ increase by different concentrations of antagonist were compared using two-way analysis of variance (ANOVA), followed by Bonferroni post-test or Kruskal-Wallis and proper post-test. cAMP accumulation was represented as acceptor:donor emission ratio (induced BRET changes) after basal subtraction (untreated cells). Dose-response curves were obtained by data interpolation using non-linear regressions and normalized as percentage of the maximal response. EC50s, as well as half-maximal inhibitory concentrations (IC50), were compared by t-test or Mann–Whitney U test, while results obtained by Western blotting and qRT-PCR data were compared by one-way ANOVA followed by Bonferroni post-test. Statistical differences were considered as significant for p < 0.05. These analyses were performed using the GraphPad Prism software (GraphPad Software Inc., San Diego, CA, USA).

GnRH receptor (GnRHR) [2] = target: T1, GnRH receptor (GnRHR); assay: BRET measurement of GnRH-induced intracellular Ca2+ increase in SH-SY5Y/GnRHR cells; type: cell-based; parameters: HA (hemagglutinin); expressed in transfected cells; conditions: means±SEM, n=6
Description: as §1, §2, §3, §4

[3] = target: Hemagglutinin-tagged GnRHR (GnRHR-HA) (UniProt P30968)
[4] = target: T2, murine GnRHR (mouse (endogenous in LβT2)) (UniProt Q01776)
T2 sequence: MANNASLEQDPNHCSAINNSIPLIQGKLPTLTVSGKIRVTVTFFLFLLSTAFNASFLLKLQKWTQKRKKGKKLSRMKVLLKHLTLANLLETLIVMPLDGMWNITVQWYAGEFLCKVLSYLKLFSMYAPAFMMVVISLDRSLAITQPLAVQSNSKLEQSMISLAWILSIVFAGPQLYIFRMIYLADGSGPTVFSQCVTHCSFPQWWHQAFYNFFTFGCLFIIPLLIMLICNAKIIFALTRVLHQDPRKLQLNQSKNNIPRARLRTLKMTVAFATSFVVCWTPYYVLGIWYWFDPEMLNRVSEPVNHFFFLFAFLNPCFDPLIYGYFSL

## CC(=O)N[C@H](Cc1ccc2ccccc2c1)C(=O)N[C@@H](Cc1ccc(Cl)cc1)C(=O)N[C@H](Cc1cccnc1)C(=O)N[C@@H](CO)C(=O)N[C@H](Cc1ccc(O)cc1)C(=O)N[C@H](CCCCNC(N)=O)C(=O)N[C@@H](CC(C)C)C(=O)N[C@@H](CCCCNC(C)C)C(=O)N1CCC[C@H]1C(=O)N[C@H](C)C(N)=O [Teverelix] (Ac-[d2Nal][Phe(4-Cl)][d3Pal]S[dY][d(hCit)]L[Lys(iPr)]P[dA]-NH2)
Lhb gene expression
  effect on GnRH-induced Lhb gene expression: inhibited
β-catenin activation
  effect on GnRH-induced active β-catenin staining: did not result in any decrease of signal
GnRH receptor (GnRHR) [1]; 3 × EC50 GnRH + 1 pM antagonist
  AUC of the kinetics of intracellular Ca2+ response: 85,301 ± 21,321
GnRH receptor (GnRHR) [1]; 3 × EC50 GnRH + 10 pM antagonist
  AUC of the kinetics of intracellular Ca2+ response: 98,939 ± 27,373
GnRH receptor (GnRHR) [1]; 3 × EC50 GnRH + 100 pM antagonist
  AUC of the kinetics of intracellular Ca2+ response: 58,864 ± 27,101
GnRH receptor (GnRHR) [1]; 3 × EC50 GnRH + 1 nM antagonist
  AUC of the kinetics of intracellular Ca2+ response: 81,702 ± 18,920
GnRH receptor (GnRHR) [1]; 3 × EC50 GnRH + 10 nM antagonist
  AUC of the kinetics of intracellular Ca2+ response: 74,321 ± 17,569
GnRH receptor (GnRHR) [1]; 3 × EC50 GnRH + 75 nM antagonist
  AUC of the kinetics of intracellular Ca2+ response: 42,401 ± 8974
GnRH receptor (GnRHR) [1]; 3 × EC50 GnRH + 100 nM antagonist
  AUC of the kinetics of intracellular Ca2+ response: 29,931 ± 8731
GnRH receptor (GnRHR) [1]; 3 × EC50 GnRH + 1 µM antagonist
  AUC of the kinetics of intracellular Ca2+ response: 4107 ± 3804
GnRH receptor (GnRHR) [2]; 3xEC50 GnRH + 1 pM antagonist
  AUC of the kinetics of intracellular Ca2+ response: 143555±29053
GnRH receptor (GnRHR) [2]; 3xEC50 GnRH + 10 pM antagonist
  AUC of the kinetics of intracellular Ca2+ response: 128010±27347
GnRH receptor (GnRHR) [2]; 3xEC50 GnRH + 100 pM antagonist
  AUC of the kinetics of intracellular Ca2+ response: 110248±22209
GnRH receptor (GnRHR) [2]; 3xEC50 GnRH + 1 nM antagonist
  AUC of the kinetics of intracellular Ca2+ response: 96368±17786
GnRH receptor (GnRHR) [2]; 3xEC50 GnRH + 10 nM antagonist
  AUC of the kinetics of intracellular Ca2+ response: 81812±12486
GnRH receptor (GnRHR) [2]; 3xEC50 GnRH + 20 nM antagonist
  AUC of the kinetics of intracellular Ca2+ response: 38199±10646
GnRH receptor (GnRHR) [2]; 3xEC50 GnRH + 100 nM antagonist
  AUC of the kinetics of intracellular Ca2+ response: 76018±13231
GnRH receptor (GnRHR) [2]; 3xEC50 GnRH + 1 uM antagonist
  AUC of the kinetics of intracellular Ca2+ response: 5686±3292

## Cetrorelix acetate (peptide)
[3]
  IC50 of inhibition of 3 × EC50 GnRH-induced cAMP accumulation (CAMYEL BRET), HEK293/GnRHR cells: 0.84 nM
  IC50 of inhibition of 3 × EC50 GnRH-induced cAMP accumulation (CAMYEL BRET), SH-SY5Y/GnRHR cells: 1.56 nM

## Ganirelix acetate (peptide)
[3]
  IC50 of inhibition of 3 × EC50 GnRH-induced cAMP accumulation (CAMYEL BRET), HEK293/GnRHR cells: 0.61 nM
  IC50 of inhibition of 3 × EC50 GnRH-induced cAMP accumulation (CAMYEL BRET), SH-SY5Y/GnRHR cells: 16.6 nM

## Gonadotropin releasing hormone (GnRH) (from UniProt P01148 24-33) (peptide)
[4]
  EC50 of GnRH-induced intracellular Ca^2+ accumulation (BRET biosensor), LβT2 cells: 1.8 nM

## Teverelix (peptide)
[3]
  IC50 of inhibition of 3 × EC50 GnRH-induced cAMP accumulation (CAMYEL BRET), HEK293/GnRHR cells: 0.49 nM
  IC50 of inhibition of 3 × EC50 GnRH-induced cAMP accumulation (CAMYEL BRET), SH-SY5Y/GnRHR cells: 62.8 nM
